Test results as given in US9618509B2 (priority 2007, dated 2017).

Assays:
[1] = system: PBMC isolated from M. bovis-infected cattle; assay type: cell-based
[2] = system: PBMC isolated from M. bovis-infected cattle; assay type: cell-based; remark: listed apart in the source
M. bovis infected cattle = conditions: Mustafa et al., 2006, cited from earlier work

## AKIYSEADEA WRKAIDGLFT (AKIYSEADEAWRKAIDGLFT; fragment of full length protein) [SEQ ID NO: 13]
[1]
  average spot-forming units (SFU): 509 SFU per 10^6 PBMC
  recognition / response in ELISPOT (cattle responding of the three tested): all three
[2]
  intracellular IFN-γ production: Markedly higher levels of IFN-γ

## GVDLAKSLRI AAKIYSEADE (GVDLAKSLRIAAKIYSEADE; fragment of full length protein) [SEQ ID NO: 11]
[1]
  recognition / response in ELISPOT (cattle responding of the three tested): a response was recorded
[2]
  dead cells in the sample: > 64%
  intracellular IFN-γ production: no IFN-γ response

## LGSSLHTAGV DLAKSLRIAA (LGSSLHTAGVDLAKSLRIAA; fragment of full length protein) [SEQ ID NO: 10]
[2]
  intracellular IFN-γ production: Markedly higher levels of IFN-γ

## RIAAKIYSEA DEAWRKAIDG (RIAAKIYSEADEAWRKAIDG; fragment of full length protein) [SEQ ID NO: 12]
[2]
  intracellular IFN-γ production: Markedly higher levels of IFN-γ

## Rv3616c: product of the first gene of the Rv3616c-Rv3612c operon, a dominant mycobacterial antigen (Mustafa et al., 2006)
M. bovis infected cattle; BCG vaccinated
  vaccinated individuals that respond: 40%
M. bovis infected cattle
  frequency of recognition in M. bovis infected cattle: 84.6%

## VYLTAHNALG SSLHTAGVDL (VYLTAHNALGSSLHTAGVDL; fragment of full length protein) [SEQ ID NO: 9]
[2]
  intracellular IFN-γ production: Markedly higher levels of IFN-γ
